Here are results for 20 molecules from patent publication US6383773B2, “Penicillin conversion” (Massachusetts Institute of Technology, priority 1998, dated 2002).

Experiment [1] has as its target T1, S. clavuligerus expandase (Streptomyces clavuligerus, UniProt P18548).
T1 construct: endogenous in cells; host or cells: S. clavuligerus mutant NP1, crude cell-free extract
As to the kind of experiment: Penicillin ring expansion by cell-free S. clavuligerus expandase extracts, paper disc-agar diffusion bioassay. Type of experiment: biochemical. Particulars: 4 mg/ml extract protein; for Ring expansion, size of zones of inhibition: 2 mg/ml substrate (penicillin mX and octanoyl-6-APA 3 mg/ml), 2 hours; for Inhibition Zone Diameter: 2 hours of reaction, 250 μl in bioassay (E. coli ESS, penicillinase). Here is the method:
Preparation of Cell-free Extracts: Fermentation broths were centrifuged at 8,000×g and 4° C. for 10 min. Pellets were washed twice using 50 mM Tris-HCI supplemented with 0.1 mM dithiothreitol (DTT). The cells were resuspended in the same buffer and disrupted by four 25-sec. sonication treatments (power setting 5 and duty cycle 50%), in an ice-water bath using a Branson 350 sonifier (Branson Sonic Power Co., Danbury, Conn.). Cell debris was removed by centrifugation (14,000×g, 30 min., 4° C.). The resulting extracts containing 8-10 mg protein/ml were placed on ice and utilized immediately. Protein concentrations were measured using the Bio-Rad protein assay (Bio-Rad, Hercules, Calif.). Bovine serum albumin was used as standard.
Ring Expansion Reaction: We defined ring expansion reaction conditions as modifications of the standard reaction mixture for expandase reactions described by Maeda et al. (Maeda et al., Enzyme Microb. Technol. 17:231-34, 1995) except that penicillin G was used a substrate instead of penicillin N. Additions were made following the order established by Shen et al. (Shen et al., Enzyme Microb. Technol. 6:402-404, 1984. Reaction mixtures were incubated in test tubes (cell-free extract) or 250 ml baffled flasks (resting cells) at 220 rpm, 30° C. Reactions containing the protein extract were stopped at various times (see Table 1 and Figure Legends) by mixing 0.5 ml of assay solution with 0.5 ml of methanol. In the case of resting cells, samples were centrifuged to remove cells and supernatants were transferred to new tubes. Expandase activity was detected by paper disc-agar diffusion bioassay.
Detection of Expandase Activity: As mentioned above, expandase activity was detected by assaying production of a growth-inhibitory zone in a paper disc-agar diffusion bioassay. Paper discs were saturated with 200 μl of the reaction mixture (cell-free extracts or supernatant (resting cells) as follows. Two discs were superimposed and four 50 μl samples were applied. After each application, the discs were allowed to dry for 20 min at 37° C. under a laminar hood and, finally, they were placed on LB (1% tryptone, 0.5% NaCl, 0.5% yeast extract, 0.1% glucose) 0.8% agar medium seeded with E. coli ESS (a β-lactam supersensitive mutant), and the plates were incubated overnight at 37° C. The formation of DAOG and/or other cephalosporin(s) was determined by including 50,000 IU/ml of penicillinase (Difco Bacto penase concentrate, Difco Laboratories, Detroit, Mich.) in the assay plates. This penicillinase is a narrow spectrum β-lactamase that attacks penicillins but not cephalosporins. The diameters of zones of growth inhibition were measured and quantified with a calibration curve using DAOG as standard.
Ring Expansion of Other Penicillins by Cell-free Extracts: We tested our reaction conditions for their ability to support ring expansion on other penicillin substrates and found detectable expansion with each of the 15 substrates that we tested. […] The reactions contained 4 mg/ml extract (protein concentration), 50 mM Tris-HCl pH 7.4, 1.8 mM FeSO4, 1.28 mM α-ketoglutarate, 8 mM MgSO4, 8 mM KCl, 4 mM ascorbic acid, 14 mM DTT, and 2 mg/ml substrate (except for penicillin mX and octanoyl-6-APA, which were used at 3 mg/ml). Samples were centrifuged at 12K rpm for 5 minutes after 2 hours of reaction. 250 μl of reaction mixture was used in each bioassay.
A general note: Agar diffusion results depend on both activity and mobility in agar.

The target in another experiment is T2, C. acremonium expandase (Hapsidospora chrysogena, UniProt P11935).
T2 sequence (P11935 1-332): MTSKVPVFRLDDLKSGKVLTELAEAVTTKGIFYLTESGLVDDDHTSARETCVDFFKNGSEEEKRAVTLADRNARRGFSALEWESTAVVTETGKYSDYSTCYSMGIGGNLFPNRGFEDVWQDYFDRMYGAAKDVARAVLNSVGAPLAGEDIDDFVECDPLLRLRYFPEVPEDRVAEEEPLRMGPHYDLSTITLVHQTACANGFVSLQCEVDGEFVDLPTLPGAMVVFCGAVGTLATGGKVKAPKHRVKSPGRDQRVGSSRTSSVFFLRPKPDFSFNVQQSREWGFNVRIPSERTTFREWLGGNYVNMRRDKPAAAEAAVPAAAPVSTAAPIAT
Particulars: cited from earlier work; for substrate for expandase activity: crude extracts (Kohsaka et al. 1976; Demain et al.).

In experiment [2] the target is T1, S. clavuligerus expandase. Particulars: literature reports (Jensen 1982; Dotzlaf 1989; Yeh 1994; Maeda 1995); cited from earlier work.
The test system of experiment [3] is S. clavuligerus or C. acremonium expandase enzymes. Particulars: cited from earlier work; for ability to expand: in vitro (Bowers 1984; Baldwin 1987; Shibata 1996); for in vitro substrate: suggested by Baldwin et al. 1987, subsequent work failed to confirm.

T1 sequence (P18548 whole entry): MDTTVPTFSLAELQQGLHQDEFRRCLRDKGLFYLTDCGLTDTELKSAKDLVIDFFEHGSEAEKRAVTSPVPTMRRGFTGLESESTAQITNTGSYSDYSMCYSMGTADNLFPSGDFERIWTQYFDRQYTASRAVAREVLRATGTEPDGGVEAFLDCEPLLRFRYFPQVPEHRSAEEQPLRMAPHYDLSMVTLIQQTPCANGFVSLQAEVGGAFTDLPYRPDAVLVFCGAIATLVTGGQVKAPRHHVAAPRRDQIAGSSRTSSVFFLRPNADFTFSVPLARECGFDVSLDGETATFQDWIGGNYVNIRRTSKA

On to `CC1(C)S[C@@H]2[C@H](NC(=O)CCCCC(=O)O)C(=O)N2[C@H]1C(=O)O` [Adipyl-6-APA, adipyl-6-APA], for which the “Ring expansion, size of zones of inhibition” value (shortened to “Ring expansion … of inhibition”) in experiment [1] is given as “intermediate size zones”. Moreover, the “Inhibition Zone Diameter” value in experiment [1] (2 mg/ml substrate) was 20 mm. Also, the ring expansion result is listed as “does not expand” on C. acremonium expandase (partially purified enzyme (Kupka et al. 1983)) and “not” in experiment [2]. Also, the ability to expand result in experiment [3] was “some ability”.

Consider D-glutamyl-6-APA, for which the ring expansion entry in experiment [2] is given as “not”. Moreover, the in vitro substrate entry in experiment [3] is “at very low levels”.

In the case of D-carboxymethylcysteinyl-6-APA, the ability to expand result in experiment [3] is listed as “some ability”.

`CC1(C)S[C@@H]2[C@H](NC(=O)Cc3ccc(O)cc3)C(=O)N2[C@H]1C(=O)O` [Penicillin X, penicillin X]: the “Ring expansion … of inhibition” value in experiment [1] is listed as “Large zones of inhibition”. In experiment [1] (2 mg/ml substrate), the “Inhibition Zone Diameter” value is reported as 30.5 mm.

On to glutamyl-6-APA, for which, in experiment [3], the in vitro substrate result is “at very low levels”.

In the case of `CCCCCCCCC(=O)NC1C(=O)N2C1SC(C)(C)C2C(=O)O` (stereo not shown) [Nonanoyl-6-APA, nonanoyl-6-APA], the “Ring expansion … of inhibition” value in experiment [1] is recorded as “smaller zones”. Moreover, the “Inhibition Zone Diameter” value in experiment [1] (2 mg/ml substrate) amounted to 10.5 mm.

For `CC1(C)S[C@@H]2[C@H](NC(=O)CCC[C@@H](N)C(=O)O)C(=O)N2[C@H]1C(=O)O` [penicillin N], the “substrate for expandase activity” value on C. acremonium expandase is given as “substrates”. The ring expansion result in experiment [2] was “expands the ring”.

Regarding `CCCCC(=O)NC1C(=O)N2[C@@H]1SC(C)(C)[C@@H]2C(=O)O` (stereo partly shown) [Valeryl-6-APA, valeryl-6-APA], in experiment [1], the “Ring expansion … of inhibition” value was “intermediate size zones”. Further, in experiment [1] (2 mg/ml substrate), the “Inhibition Zone Diameter” value was found to be 15 mm.

Consider `CC1(C)S[C@@H]2[C@H](NC(=O)COc3ccccc3)C(=O)N2[C@H]1C(=O)O` [Penicillin V, penicillin V], for which the “Ring expansion … of inhibition” value in experiment [1] is “smaller zones”. In addition, the “Inhibition Zone Diameter” value in experiment [1] (2 mg/ml substrate) is 7.5 mm. For the same molecule, the ring expansion entry in experiment [2] is listed as “not”.

Consider `CCCC(=O)NC1C(=O)N2C1SC(C)(C)C2C(=O)O` (stereo not shown) [Butyryl-6-APA, butyryl-6-APA], for which the “Ring expansion … of inhibition” value in experiment [1] is recorded as “intermediate size zones”. Besides, in experiment [1] (2 mg/ml substrate), the “Inhibition Zone Diameter” value is recorded as 17.5 mm. In addition, the ring expansion result in experiment [2] is listed as “not”.

With `CCCCCCC(=O)NC1C(=O)N2[C@@H]1SC(C)(C)[C@@H]2C(=O)O` (stereo partly shown) [Heptanoyl-6-APA, heptanoyl-6-APA], the “Ring expansion … of inhibition” value in experiment [1] is “intermediate size zones”. In experiment [1] (2 mg/ml substrate), the “Inhibition Zone Diameter” value is 16.5 mm.

With `CC1(C)SC2C(NC(=O)Cc3cccs3)C(=O)N2C1C(=O)O` (stereo not shown) [2-Thiophenylacetyl-6-APA, 2-thiophenylacetyl-6-APA], in experiment [1], the “Ring expansion … of inhibition” value is on record as “Large zones of inhibition”. The “Inhibition Zone Diameter” value in experiment [1] (2 mg/ml substrate) worked out at 32 mm.

For the molecule `CCCCCCCC(=O)N[C@@H]1C(=O)N2[C@@H]1SC(C)(C)[C@@H]2C(=O)O` [Octanoyl-6-APA, octanoyl-6-APA], the “Ring expansion … of inhibition” value in experiment [1] was “intermediate size zones”. In addition, the “Inhibition Zone Diameter” value in experiment [1] (3 mg/ml substrate) is 16 mm.

As to `CCCCCCCCCC(=O)NC1C(=O)N2C1SC(C)(C)C2C(=O)O` (stereo not shown) [Decanoyl-6-APA, decanoyl-6-APA], the “Ring expansion … of inhibition” value in experiment [1] was “smaller zones”. The “Inhibition Zone Diameter” value in experiment [1] (2 mg/ml substrate) worked out at 7 mm.

Regarding `CCCCCC(=O)NC1C(=O)N2[C@@H]1SC(C)(C)[C@@H]2C(=O)O` (stereo partly shown) [Hexanoyl-6-APA, hexanoyl-6-APA], in experiment [1], the “Ring expansion … of inhibition” value is “intermediate size zones”. Also, the “Inhibition Zone Diameter” value in experiment [1] (2 mg/ml substrate) worked out at 19.5 mm.

In the case of `CC1(C)S[C@@H]2[C@H](NC(=O)Cc3cccc(C(=O)O)c3)C(=O)N2[C@H]1C(=O)O` [m-carboxyphenylacetyl-6-APA], the ring expansion entry in experiment [2] was “not”. Besides, in experiment [3], the in vitro substrate result is on record as “at very low levels”.

As for `CCCCCC(=O)N[C@@H]1C(=O)N2[C@@H]1SC(C)(C)[C@@H]2C(=O)O` [penicillin dihydroF], the ring expansion result in experiment [2] was “not”.

On to `CC/C=C/CC(=O)N[C@@H]1C(=O)N2[C@@H]1SC(C)(C)[C@@H]2C(=O)O` [Penicillin F, penicillin F], for which the “Ring expansion … of inhibition” value in experiment [1] is reported as “intermediate size zones”. Also, the “Inhibition Zone Diameter” value in experiment [1] (2 mg/ml substrate) was determined as 21 mm.

Turning to `CCCCCCCC(=O)N[C@@H]1C(=O)N2[C@@H]1SC(C)(C)[C@@H]2C(=O)O` [penicillin K], the ring expansion entry in experiment [2] is listed as “not”.

Consider `CC1(C)S[C@@H]2[C@H](N)C(=O)N2[C@H]1C(=O)O` [6-aminopenicillanic acid], for which the “substrate for expandase activity” value on C. acremonium expandase is “not”.
